In patent publication US8178506B2, “Oligomeric compounds and compositions for use in modulation of small non-coding RNAs” (Regulus Therapeutics Inc., priority 2003, dated 2012):
In the oligonucleotide strings, read from the 5' end, every base follows the letter of its sugar. An asterisk marks phosphorothioate; unmarked linkages are phosphodiester. Other units and linkages are bracketed, terminal groups are in braces. A string of capitals states the bases alone. e = 2'-O-(2-methoxyethyl) (MOE); [5mC] = 5-methylcytosine; d = 2'-deoxy (DNA)

Legend:
[1] = system: BJ, B16-F10, T47D, T47Dp53 and HeLa cells; experiment: Cell cycle assay (propidium iodide flow cytometry), cell line panel; format: cell-based; settings: for G1 (percentage of cells in phase of the cell cycle) / G2/M (percentage of cells in phase of the cell cycle) / S (percentage of cells in phase of the cell cycle) / SubG1 (percentage of cells in phase of the cell cycle) / aneuploid (percentage of cells): 150 nM oligomeric compound, 4.5 μg/ml LIPOFECTIN, after 72 hours, propidium iodide flow cytometry
[2] = system: PEPCK-c; experiment: PEPCK-c mRNA expression in HepG2 cells; format: cell-based, human; settings: for PEPCKc mRNA: four hours, UTC = 100
[3] = system: preadipocytes; experiment: Caspase assay in preadipocytes; format: cell-based, human; settings: for Fold Increase over UTC (caspase activity): untreated control set equal to 1.0
From the text: The effect of oligomeric compounds of the present invention targeting miRNAs was examined in preadipocytes (Zen-Bio, Inc., Research Triangle Park, N.C.) using the fluorometric caspase assay previously described in Example 11.

[4] = system: leptin; experiment: Leptin secretion by adipocytes (ELISA); format: cell-based, human; settings: adipocytes, 250 nM oligomeric compound, day nine post-transfection, relative to control (1.0); Table 16
Description: Leptin secretion into the medium in which adipocytes are cultured is measured by protein ELISA. On day nine post-transfection, 96-well plates are coated with a monoclonal antibody to human leptin (R&D Systems, Minneapolis, Minn.) and left at 4° C. overnight. The plates are blocked with bovine serum albumin (BSA), and a dilution of the treated adipoctye medium is incubated in the plate at room temperature for approximately 2 hours. After washing to remove unbound components, a second monoclonal antibody to human leptin (conjugated with biotin) is added. The plate is then incubated with strepavidin-conjugated horse radish peroxidase (HRP) and enzyme levels are determined by incubation with 3, 3′,5,5′-tetramethlybenzidine, which turns blue when cleaved by HRP. The OD450 is read for each well, where the dye absorbance is proportional to the leptin concentration in the cell lysate.
Leptin is also a marker for differentiated adipocytes. In the adipocyte assay, leptin secretion into the media above the differentiated adipocytes was measured by protein ELISA. Cell growth, transfection and differentiation procedures were carried out as described for the Triglyceride accumulation assay (see below). On day nine post-transfection, 96-well plates were coated with a monoclonal antibody to human leptin (R&D Systems, Minneapolis, Minn.) and left at 4° C. overnight. The plates were blocked with bovine serum albumin (BSA), and a dilution of the media was incubated in the plate at RT for 2 hours. After washing to remove unbound components, a second monoclonal antibody to human leptin (conjugated with biotin) was added. The plate was then incubated with strepavidin-conjugated horseradish peroxidase (HRP) and enzyme levels are determined by incubation with 3, 3′, 5,5′-Tetramethlybenzidine, which turns blue when cleaved by HRP. The OD450 was read for each well, where the dye absorbance is proportional to the leptin concentration in the cell lysate. Results are expressed as a percent±standard deviation relative to transfectant-only controls.

[5] = Experiment 1, basal (no insulin), HepG2, 100 nM oligomeric compound
[6] = Experiment 2, 1 nM insulin treated, HepG2, 100 nM oligomeric compound
[7] = HepG2 cells, Experiment 1, basal (no insulin)

Substance | G1 (percentage of cells in phase of the cell cycle) [1] [%] | G2/M (percentage of cells in phase of the cell cycle) [1] [%] | S (percentage of cells in phase of the cell cycle) [1] [%] | SubG1 (percentage of cells in phase of the cell cycle) [1] [%] | aneuploid (percentage of cells) [1] [%] | PEPCK-c (% UTC) [2, 5] [% UTC] | PEPCK-c (% UTC) [2, 6] [% UTC] | Fold Increase over UTC (caspase activity) [3] [fold over UTC] | Leptin (secretion) [4] | PEPCKc mRNA [2, 7] | other results
327878 (antisense e[5mC]*eT*eA*eG*eT*eG*eG*eT*e[5mC]*e[5mC]*eT*eA*eA*eA*e[5mC]*eA*eT*eT*eT*e[5mC]*eA*e[5mC]) [compound 327878] | 39.1 | 20 | 40.8 | 17.3 | 11.9 | 45 | 29 | – | – | – | –
327888 (antisense eA*eA*eT*eG*e[5mC]*e[5mC]*e[5mC]*e[5mC]*eT*eA*eA*eA*eA*eA*eT*e[5mC]*e[5mC]*eT*eT*eA*eT) [compound 327888] | 53.7 | 16.7 | 29.5 | 13.3 | 12.9 | – | – | 1.1 | 1.38 | – | –
327889 (antisense eG*eT*eG*eG*eT*eA*eA*eT*e[5mC]*e[5mC]*e[5mC]*eT*eG*eG*e[5mC]*eA*eA*eT*eG*eT*eG*eA*eT) [compound 327889] | 53.1 | 14.4 | 32.5 | 8.2 | 10.5 | 137 | 202 | 1.1 | 1.05 | – | –
327890 (antisense eA*eG*e[5mC]*eA*e[5mC]*eA*eA*eA*e[5mC]*eT*eA*e[5mC]*eT*eA*e[5mC]*e[5mC]*eT*e[5mC]*eA) [compound 327890] | – | – | – | – | – | 85 | 113 | 1.3 | 1.36 | – | –
327893 (antisense eA*eA*e[5mC]*e[5mC]*eA*e[5mC]*eA*e[5mC]*eA*eA*e[5mC]*e[5mC]*eT*eA*e[5mC]*eT*eA*e[5mC]*e[5mC]*eT*e[5mC]*eA) [compound 327893] | – | – | – | – | – | – | – | 1.3 | 1.14 | 81 | –
327901 (antisense eT*eG*eA*eG*e[5mC]*eT*eA*e[5mC]*eA*eG*eT*eG*e[5mC]*eT*eT*e[5mC]*eA*eT*e[5mC]*eT*e[5mC]*eA) [compound 327901] | 34.7 | 20.3 | 44.9 | 12 | 13.6 | 119 | 117 | 2.0 | 1.02 | – | –
327903 (antisense eA*eA*e[5mC]*eT*eA*eT*eA*e[5mC]*eA*eA*e[5mC]*e[5mC]*eT*eA*e[5mC]*eT*eA*e[5mC]*e[5mC]*eT*e[5mC]*eA) [compound 327903] | 53.7 | 15.4 | 30.9 | 11 | 13.4 | 71 | 87 | 1.6 | 1.61 | – | –
327905 (antisense e[5mC]*eA*eG*eA*e[5mC]*eT*e[5mC]*e[5mC]*eG*eG*eT*eG*eG*eA*eA*eT*eG*eA*eA*eG*eG*eA) [compound 327905] | 56.9 | 15 | 28.1 | 8.5 | 14.7 | 129 | 147 | 1.5 | 1.62 | – | –
327911 (antisense eG*e[5mC]*eT*eA*e[5mC]*e[5mC]*eT*eG*e[5mC]*eA*e[5mC]*eT*eG*eT*eA*eA*eG*e[5mC]*eA*e[5mC]*eT*eT*eT*eT) [compound 327911] | 49.9 | 20 | 30.1 | 10.9 | 16.5 | – | – | – | – | 52 | PEPCKc mRNA expression ([2]; Experiment 2, insulin treated: HepG2 cells transfected with oligomeric compound, 1 nM insulin for four hours, UTC + 1 nM insulin = 100): 78
327925 (antisense eT*eA*eG*e[5mC]*eT*eG*eG*eT*eT*eG*eA*eA*eG*eG*eG*eG*eA*e[5mC]*e[5mC]*eA*eA) [compound 327925] | – | – | – | – | – | 145 | 182 | 2.0 | 1.40 | – | –
327931 (antisense eA*eA*e[5mC]*e[5mC]*eA*eT*eA*e[5mC]*eA*eA*e[5mC]*e[5mC]*eT*eA*e[5mC]*eT*eA*e[5mC]*e[5mC]*eT*e[5mC]*eA) [compound 327931] | – | – | – | – | – | – | – | 1.5 | 1.12 | – | –
327933 (antisense eA*eA*eG*eG*eG*eA*eT*eT*e[5mC]*e[5mC]*eT*eG*eG*eG*eA*eA*eA*eA*e[5mC]*eT*eG*eG*eA*e[5mC]) [compound 327933] | 49.6 | 19.1 | 31.3 | 10.2 | 15.9 | 118 | 115 | – | – | – | –
327967 (antisense eA*e[5mC]*eT*eG*eT*eA*e[5mC]*eA*eA*eA*e[5mC]*eT*eA*e[5mC]*eT*eA*e[5mC]*e[5mC]*eT*e[5mC]*eA) [compound 327967] | – | – | – | – | – | – | – | 1.5 | 1.22 | – | –
328691 (e[5mC]*e[5mC]*e[5mC]*e[5mC]*eA*dT*d[5mC]*dT*dT*dA*dG*d[5mC]*dA*dT*d[5mC]*eT*eA*eA*eG*eG) [compound 328691] | 60.5 | 15.1 | 24.4 | 7.7 | 16.6 | – | – | – | – | – | PEPCK-c (% UTC) ([2]; Experiment 3, basal (no insulin), HepG2 cells, 48 hours post-transfection): 108 % UTC; PEPCK-c (% UTC) ([2]; Experiment 4, insulin-sensitization: HepG2 cells treated with 1 nM insulin for four hours, 48 h post-transfection, mRNA by real-time PCR): 97 % UTC
341803 (antisense CCACACACTTCCTTACATTCCA; all 2'-MOE, all phosphorothioate, methylation of C not given here) [compound 341803] | – | – | – | – | – | – | – | – | – | 110 | –
341804 (antisense ATCTGCACTGTCAGCACTTT; all 2'-MOE, all phosphorothioate, methylation of C not given here) [compound 341804] | – | – | – | – | – | – | – | – | – | 44 | –
341805 (antisense ACCCTTATCAGTTCTCCGTCCA; all 2'-MOE, all phosphorothioate, methylation of C not given here) [compound 341805] | – | – | – | – | – | – | – | – | – | 40 | –
341806 (antisense GCCAATATTTCTGTGCTGCTA; all 2'-MOE, all phosphorothioate, methylation of C not given here) [compound 341806] | – | – | – | – | – | – | – | – | – | 79 | –
341807 (antisense CTGGGACTTTGTAGGCCAGTT; all 2'-MOE, all phosphorothioate, methylation of C not given here) [compound 341807] | – | – | – | – | – | – | – | – | – | 97 | –
TGAGCTACAGTGCTTCATCTCA [ISIS 327901] (chemistry not given here) [uniform 2′-MOE PS; targets mir-143] | – | – | – | – | – | – | – | – | – | – | percentage of cells in the G2/M phase ([1]; 150 nM, 72 hours (Table 29)): increased percentage of cells in the G2/M phase; caspase activity [3]: does not result in a significant increase in caspase activity
